Reference: US11918568B2, “Fused ring compound having urea structure” (DAIICHI SANKYO COMPANY, LIMITED, priority 2018, dated 2024)
“Also recorded” adds a separate entry of the source.

Legend:
HEK293A cells = assay: Effect of NAMPT activator on the intracellular NAD+ level (in vitro cell-based assay); details: HEK293-A, 3 h culture with compound, NAD+/NADH-Glo assay, read-out: EC50 (intracellular NAD+ content)
Method: HEK293A cells were cultured in Dulbecco's Modified Eagle Medium (DMEM (high glucose)) containing 10% fetal bovine serum (FBS), non-essential amino acid (NEAA), and antibiotic-antimycotic [reaction medium]. On the day before the test, HEK293A cells were inoculated at a ratio of 3.0×10^4 cells/80 μL to 96 well poly-D-lysine coated plate and cultured overnight in a CO2 incubator.
On the day of the test, each test compound diluted with reaction medium to a concentration of 5 times the final concentration was added at a ratio of 20 μL/well, and the cells were further cultured for 3 h. After removal of the medium, the cells were lysed in 50 μL/well of Bicarbonate Base Buffer (100 mM sodium carbonate, 20 mM sodium bicarbonate, 100 mM nicotinamide, 20 mM Triton X-100) containing 1% dodecyl trimethyl-ammonium bromide (DTAB). The NAD^+ content in the cell extract was measured using NAD^+/NADH-Glo assay kit according to the manufacturer's instructions. Hereinafter, the procedures will be briefly described. 20 μL of the lysate was separated, and 10 μL of 0.4 N HCL was added thereto, followed by incubation at 60° C. for 15 min and subsequently at 25° C. for 10 min. The mixture was neutralized by the addition of 10 μL of 0.5 M Trizma base solution and then diluted 10-fold with distilled water. 15 μL of the diluted sample was mixed with an equal amount (15 μL) of NAD^+/NADH-Glo reagent in 384 well black plate, and the mixture was incubated for 30 min in the dark. Then, chemiluminescence intensity was measured.
EC50 value of each compound was calculated from the calculated values of the compound at various concentrations using GraphPad Prism software (Table 2).

human NAMPT enzyme = human NAMPT enzyme (Homo sapiens (Human), UniProt P43490); assay: NAMPT enzyme activating effect (in vitro cell-free enzyme assay); type: biochemical; details: 2 ng/mL human NAMPT enzyme, 1-h incubation at 25° C., fluorescence of NMN derivative
Method: The NAMPT enzyme assay was conducted in accordance with the method of Formentini et al. […] Hereinafter, the procedures will be briefly described. The NAMPT enzyme reaction was carried out using polypropylene 384 well V shaped black plate (Greiner Bio One International GmbH). […] Then, 22 μL of 88% formic acid was added and the mixture was further incubated for 30 min in the dark. The NAMPT enzyme activity was calculated as the difference between fluorescence intensity (Ex 380 nm/Em 450 nm) from the reaction of a test compound treatment group and fluorescence intensity from control reaction free from the NAMPT enzyme. [NAMPT enzyme activity]=[Fluorescence intensity of the test substance treatment group]−[Mean fluorescence intensity of the control reaction free from the NAMPT enzyme] EC50 value of each compound was calculated from the enzyme activities of the compound at various concentrations by using GraphPad Prism software (GraphPad Software) (Table 1)

C57BL/6N DIO mice [1] = assay: Anti-obesity effect (DIO mouse, free feeding); type: in vivo; details: DIO mice freely fed high-fat diet, 30 mg/kg orally once a day for 3 wk, vs vehicle group
Excerpt: 45-week-old male C57BL/6N DIO mice were each acclimatized for 1 wk under individual housing. Then, the mice were divided into 2 groups each involving 6 mice with their weights, amounts of weight change, and food intakes during the acclimatization period as indexes. Each mouse was freely fed a purified high-fat diet (D12451) for 3 wk under individual rearing. […] The weight was compared between the test groups.

C57BL/6N mice [2] = assay: NAD+ level in retina (normal mouse); type: in vivo; details: normal C57BL/6N mice, 30 mg/kg orally, 4 h after administration, LC/MS
Method: 4 h after the administration, each mouse was sacrificed by exanguination. The retina was harvested from both eyes. The retina (4 eye pools per sample) was homogenized with a 100-fold amount of 2 M perchloric acid per retinal tissue weight. Then, the samples were centrifuged and the supernatant was neutralized with 5 M […]. After removal of potassium perchlorate, the NAD^+ concentration in the supernatant sample was measured using LC/MS.

C57BL/6N DIO mice [3] = assay: Tissue NAD+ level in DIO mouse - 2 (major tissues); type: in vivo; details: 30 mg/kg orally, 24 h after administration, LC/MS
Method: (§1) 24 h after the administration, each mouse was sacrificed by exanguination. The heart, kidney, spleen, lung, and white adipose tissues were harvested. For a control, the same organs as above were harvested from 8-week-old male C57BL/6N mice. Each tissue was homogenized with a 10- or 100-fold amount of 2 M perchloric acid per its weight. Then, the samples were centrifuged and the supernatant was neutralized with 5 M […]. After removal of potassium perchlorate, the NAD^+ concentration in the supernatant of sample was measured using LC/MS.

C57BL/6N DIO mice [4] = assay: Tissue NAD+ level in diet-induced obese (DIO) mice; type: in vivo, mouse; details: 30 or 100 mg/kg orally, 24 h after administration, LC/MS
Method: as §1, with “exsanguination.” for “exanguination.”, “liver, gastrocnemius, soleus,” for “heart, kidney, spleen, lung,”, “brown” for “white”, “harvested.” for “harvested. For a control, the same organs as above were harvested from 8-week-old male C57BL/6N mice.”

C57BL/6N mice [5] = assay: Tissue NAD+ level in normal mice; type: in vivo, mouse; details: normal C57BL/6N mice, 30 or 100 mg/kg orally, 24 h after administration, LC/MS
Method: as §1, with “exsanguination.” for “exanguination.”, “liver, gastrocnemius, soleus,” for “heart, kidney, spleen, lung,”, “brown” for “white”, “harvested.” for “harvested. For a control, the same organs as above were harvested from 8-week-old male C57BL/6N mice.”

C57BL/6N DIO mice [6] = assay: Energy expenditure in DIO mouse (oxygen consumption); type: in vivo; details: 100 mg/kg orally once a day, vs vehicle group
Method: 48-week-old male C57BL/6N DIO mice were divided into 2 groups each involving 4 mice. Each mouse was acclimatized for 3 d under individual housing and then fasted overnight. […] Oxygen consumptions (VO2) and carbon dioxide outputs (VCO2) were measured for approximately 73 h (approximately 9 h under fasting (on the order of 9:00 to 18:00) and approximately 64 h under feeding (on the order of 18:00 to 10:00 of two days later)) using Comprehensive Lab Animal Monitoring System (Columbus Instruments International Corp.).

WKY rats = details: 5 mg/kg intraperitoneally 0.5 h before Main FST, vs vehicle control

Chain of human NAMPT enzyme (P43490 whole entry): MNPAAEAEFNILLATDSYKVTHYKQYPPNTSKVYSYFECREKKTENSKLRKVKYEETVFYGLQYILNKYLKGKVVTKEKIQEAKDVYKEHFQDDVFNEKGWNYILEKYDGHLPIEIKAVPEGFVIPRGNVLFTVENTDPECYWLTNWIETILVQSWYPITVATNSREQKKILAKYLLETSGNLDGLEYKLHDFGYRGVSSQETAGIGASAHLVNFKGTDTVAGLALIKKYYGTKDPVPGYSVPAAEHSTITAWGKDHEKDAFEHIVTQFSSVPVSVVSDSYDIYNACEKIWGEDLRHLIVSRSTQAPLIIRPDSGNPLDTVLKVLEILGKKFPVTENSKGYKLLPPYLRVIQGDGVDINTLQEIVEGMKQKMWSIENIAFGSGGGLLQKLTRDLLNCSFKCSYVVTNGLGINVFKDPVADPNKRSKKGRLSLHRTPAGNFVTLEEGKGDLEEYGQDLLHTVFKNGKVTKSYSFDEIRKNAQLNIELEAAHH

Row | SMILES | EC50 (HEK293A cells) [nM] | EC50 (human NAMPT enzyme) [nM] | further results
1 | Cc1ccccc1-c1nc2ccc(NC(=O)NCc3ccncc3)cc2o1 [Example 1, N-[2-(2-Methylphenyl)-1,3-benzoxazol-6-yl]-N′-[(pyridin-4-yl)methyl]urea] | 430 | 110 | 
2 | O=C(NCc1ccncc1)Nc1ccc2nc(-c3ccccc3)oc2c1 [Example 2, N-(2-Phenyl-1,3-benzoxazol-6-yl)-N′-[(pyridin-4-yl)methyl]urea] | 190 | 50 | body weight change (C57BL/6N DIO mice [1]): weight lowering effect; also recorded: decreases body weights; NAD+ levels in retina (C57BL/6N mice [2]): NAD^+ levels were increased; also recorded: increases NAD^+ levels; NAD+ levels in major tissues (heart, kidney, spleen, lung, white adipose tissue) (C57BL/6N DIO mice [3]): NAD^+ levels were increased; also recorded: increases NAD^+ levels; NAD+ levels in liver, gastrocnemius, soleus, and brown adipose tissues (C57BL/6N DIO mice [4]): increases NAD^+ levels; NAD+ levels in liver, gastrocnemius, soleus, and brown adipose tissues (C57BL/6N mice [5]): increases NAD^+ levels; oxygen consumption (VO2) per weight (C57BL/6N DIO mice [6]): increased an oxygen consumption per weight; also recorded: increases oxygen consumption
3 | O=C(NCc1ccncc1)Nc1ccc2oc(-c3ccccc3)nc2c1 [Example 7, N-(2-Phenyl-1,3-benzoxazol-5-yl)-N′-[(pyridin-4-yl)methyl]urea] | 540 | 410 | 
4 | O=C(NCc1ccncc1)Nc1ccc2nc(-c3ccccc3)nn2c1 [Example 8, N-(2-Phenyl[1,2,4]triazolo[1,5-a]pyridin-6-yl)-N′-[(pyridin-4-yl)methyl]urea] | 210 | 80 | 
5 | N#Cc1c2ccc(NC(=O)NCc3ccncc3)cc2nn1-c1ccccc1 [Example 21, N-(3-Cyano-2-phenyl-2H-indazol-6-yl)-N′-[(pyridin-4-yl)methyl]urea] | 230 | 110 | 
6 | Cn1nccc1-c1c(-c2ccccc2)nn2cc(NC(=O)NCc3ccncc3)ccc12 [Example 22, N-[3-(1-Methyl-1H-pyrazol-5-yl)-2-phenylpyrazolo[1,5-a]pyridin-6-yl]-N′-[(pyridin-4-yl)methyl]urea] | 120 | 80 | 
7 | CN(C)C(=O)n1c(-c2ccccc2)cc2cc(NC(=O)NCc3ccncc3)ccc21 [Example 41, N,N-Dimethyl-2-phenyl-5-({[(pyridin-4-yl)methyl]carbamoyl}amino)-1H-indole-1-carboxamide] |  | 290 | 
8 | Cn1c(-c2ccccc2)cc2cc(NC(=O)NCc3ccncc3)ccc21 [Example 42, N-(1-Methyl-2-phenyl-1H-indol-5-yl)-N′-[(pyridin-4-yl)methyl]urea] |  | 100 | 
9 | O=C(NCc1cnco1)Nc1ccc2cn(-c3ccccc3)nc2c1 [Example 43, N-[(1,3-Oxazol-5-yl)methyl]-N′-(2-phenyl-2H-indazol-6-yl)urea] |  | 140 | 
10 | O=C(NCc1ccncc1)Nc1ccc2cn(-c3cccc(OC(F)F)c3)nc2c1 [Example 44, N-{2-[3-(Difluoromethoxy)phenyl]-2H-indazol-6-yl}-N′-[(pyridin-4-yl)methyl]urea] |  | 110 | 
11 | COc1cccc(-c2cc3ccc(NC(=O)NCc4ccncc4)cn3n2)c1 [Example 45, N-[2-(3-Methoxyphenyl)pyrazolo[1,5-a]pyridin-6-yl]-N′-[(pyridin-4-yl)methyl]urea] |  | 60 | 
12 | CC(C)Cn1ncc2cc(NC(=O)NCc3ccncc3)ccc21 [Example 46, N-[1-(2-Methylpropyl)-1H-indazol-5-yl]-N′-[(pyridin-4-yl)methyl]urea] |  | 790 | 
13 | COCCN1CC(c2ccccc2)Oc2cc(NC(=O)NCc3ccncc3)ccc21 (stereo not drawn) [Example 48, N-[4-(2-Methoxyethyl)-2-phenyl-3,4-dihydro-2H-1,4-benzoxazin-7-yl]-N′-[(pyridin-4-yl)methyl]urea] |  | 650 | 
14 | CCNC(=O)N1CC(c2ccccc2Cl)Oc2cc(NC(=O)NCc3ccncc3)ccc21 (stereo not drawn) [Example 49, 2-(2-Chlorophenyl)-N-ethyl-7-({[(pyridin-4-yl)methyl]carbamoyl}amino)-2,3-dihydro-4H-1,4-benzoxazine-4-carboxamide] |  | 130 | 
15 | CCN(CC)C(=O)c1noc2cc(NC(=O)NCc3ccncc3)ccc12 [Example 50, N,N-Diethyl-6-({[(pyridin-4-yl)methyl]carbamoyl}amino)-1,2-benzoxazole-3-carboxamide] | 450 | 240 | 
16 | O=C(NCc1ccncc1)Nc1ccc2c(c1)OC(c1ccccc1)C2 (stereo not drawn) [Example 51, N-(2-Phenyl-2,3-dihydro-1-benzofuran-6-yl)-N′-[(pyridin-4-yl)methyl]urea] |  | 120 | 
17 | COc1cccc(C2Cc3ccc(NC(=O)NCc4ccncc4)cc3O2)c1 (stereo not drawn) [Example 52, N-[2-(3-Methoxyphenyl)-2,3-dihydro-1-benzofuran-6-yl]-N′-[(pyridin-4-yl)methyl]urea] | 1240 | 80 | 
18 | O=C(NCc1ccncc1)Nc1ccc2c(c1)OCC2c1ccccc1 (stereo not drawn) [Example 54, N-(3-Phenyl-2,3-dihydro-1-benzofuran-6-yl)-N′-[(pyridin-4-yl)methyl]urea] |  | 270 | 
19 | CCN(CC)C(=O)c1coc2cc(NC(=O)NCc3ccncc3)ccc12 [Example 55, N,N-Diethyl-6-({[(pyridin-4-yl)methyl]carbamoyl}amino)-1-benzofuran-3-carboxamide] |  | 490 | 
20 | CCN(Cc1ccccc1)C(=O)c1noc2cc(NC(=O)NCc3ccncc3)ccc12 [Example 56, N-Benzyl-N-ethyl-6-({[(pyridin-4-yl)methyl]carbamoyl}amino)-1,2-benzoxazole-3-carboxamide] |  | 30 | 
21 | O=C(NCc1ccncc1)Nc1ccc2c(C(=O)N3CC4CCC(C3)O4)noc2c1 [Example 57, N-[3-(8-Oxa-3-azabicyclo[3.2.1]octane-3-carbonyl)-1,2-benzoxazol-6-yl]-N′-[(pyridin-4-yl)methyl]urea] |  | 190 | 
22 | CNC1(c2ccccc2Cl)CCCCC1=O (stereo not drawn) [ketamine, Ketamine, reference compound] |  |  | immobility time in forced swimming test (WKY rats): significantly shortened the immobility time
